Measured values reported in patent US20260130395A1, “Water Dispersible Botanical Compositions” (Aquila Black Limited, priority 2021, published 2026).

How the values were obtained:
[1] = Stability of cannabinoid entourage and Vitamin E components of the powder concentrate by LCMSMS; format: physicochemical; conditions: powder stored at 21-25° C.
Procedure: At each time period, 0.05 g of powder was dissolved in 10 ml-15 of ethanol, diluted to fall within the analytical range, and injected into the LCMSMS for analysis.

[2] = Stability of cannabinoid compounds and Vitamin E components in Beverage 1 (AB White) by LCMSMS; format: physicochemical; conditions: for Stability of Plant-Derived Cannabinoid Compounds in AB White, 8° C.: AB White stored at 8° C.; for Stability of Plant-Derived Cannabinoid Compounds in AB White, 21-25° C.: AB White stored at 21-25° C.

For `CCCCCc1cc(O)c2c(c1)OC(C)(CCC=C(C)C)C=C2` (stereo not drawn) [CBC, cannabichromene], the “Stability of Plant-Derived Cannabinoid Compounds in Powder Concentrate” value (shortened to “Stability … in Powder Concentrate”) ([1]; 0 days) was 0.070 mg/g powder, the “Stability … in Powder Concentrate” value ([1]; 1 days) was 0.072 mg/g powder and the “Stability … in Powder Concentrate” value ([1]; 2 days) was 0.071 mg/g powder. The “Stability … in Powder Concentrate” value ([1]; 3 days) was 0.073 mg/g powder, the “Stability … in Powder Concentrate” value ([1]; 5 days) was 0.070 mg/g powder and the “Stability … in Powder Concentrate” value ([1]; 8 days) was 0.071 mg/g powder. The “Stability … in Powder Concentrate” value ([1]; 9 days) was 0.068 mg/g powder, the “Stability … in Powder Concentrate” value ([1]; 10 days) was 0.071 mg/g powder and the “Stability … in Powder Concentrate” value ([1]; 11 days) was 0.071 mg/g powder. The “Stability … in Powder Concentrate” value ([1]; 12 days) was 0.069 mg/g powder, the “Stability … in Powder Concentrate” value ([1]; 15 days) was 0.073 mg/g powder and the “Stability … in Powder Concentrate” value ([1]; 16 days) was 0.073 mg/g powder. For the same compound, the “Stability … in Powder Concentrate” value ([1]; 17 days) was 0.070 mg/g powder, the “Stability … in Powder Concentrate” value ([1]; 18 days) was 0.072 mg/g powder and the “Stability … in Powder Concentrate” value ([1]; 19 days) was 0.070 mg/g powder. The “Stability … in Powder Concentrate” value ([1]; 22 days) was 0.071 mg/g powder, the “Stability … in Powder Concentrate” value ([1]; 23 days) was 0.069 mg/g powder and the “Stability … in Powder Concentrate” value ([1]; 24 days) was 0.068 mg/g powder. For the same compound, the “Stability … in Powder Concentrate” value ([1]; 25 days) was 0.072 mg/g powder, the “Stability … in Powder Concentrate” value ([1]; 26 days) was 0.071 mg/g powder and the “Stability … in Powder Concentrate” value ([1]; 29 days) was 0.069 mg/g powder. For the same compound, the “Stability … in Powder Concentrate” value ([1]; 30 days) was 0.072 mg/g powder, the “Stability … in Powder Concentrate” value ([1]; 60 days) was 0.068 mg/g powder and the “Stability … in Powder Concentrate” value ([1]; 90 days) was 0.068 mg/g powder. For the same compound, the “Stability … in Powder Concentrate” value ([1]; 120 days) was 0.072 mg/g powder, the “Stability … in Powder Concentrate” value ([1]; 150 days) was 0.072 mg/g powder and the “Stability … in Powder Concentrate” value ([1]; 180 days) was 0.071 mg/g powder. The “Stability … in Powder Concentrate” value ([1]; 210 days) was 0.072 mg/g powder, the “Stability … in Powder Concentrate” value ([1]; 240 days) was 0.068 mg/g powder and the “Stability … in Powder Concentrate” value ([1]; 270 days) was 0.072 mg/g powder. The “Stability … in Powder Concentrate” value ([1]; 300 days) was 0.071 mg/g powder, the “Stability … in Powder Concentrate” value ([1]; 330 days) was 0.069 mg/g powder and the “Stability … in Powder Concentrate” value ([1]; 360 days) was 0.068 mg/g powder. For the same compound, the “Stability … in Powder Concentrate” value ([1]; 390 days) was 0.068 mg/g powder, the “Stability … in Powder Concentrate” value ([1]; 420 days) was 0.069 mg/g powder and the “Stability … in Powder Concentrate” value ([1]; 450 days) was 0.073 mg/g powder. For the same compound, the “Stability … in Powder Concentrate” value ([1]; 480 days) was 0.071 mg/g powder, the “Stability … in Powder Concentrate” value ([1]; 510 days) was 0.069 mg/g powder and the “Stability … in Powder Concentrate” value ([1]; 540 days) was 0.070 mg/g powder. The “Stability … in Powder Concentrate” value ([1]; 570 days) was 0.069 mg/g powder, the “Stability of Plant-Derived Cannabinoid Compounds in AB White, 8° C.” value (shortened to “Stability … 8° C.”) ([2]; 0 days) was 0.320 µg/mL and the “Stability … 8° C.” value ([2]; 1 days) was 0.314 µg/mL. The “Stability … 8° C.” value ([2]; 2 days) was 0.315 µg/mL, the “Stability … 8° C.” value ([2]; 3 days) was 0.322 µg/mL and the “Stability … 8° C.” value ([2]; 5 days) was 0.322 µg/mL. The “Stability … 8° C.” value ([2]; 8 days) was 0.318 µg/mL, the “Stability … 8° C.” value ([2]; 9 days) was 0.319 µg/mL and the “Stability … 8° C.” value ([2]; 10 days) was 0.314 µg/mL. For the same compound, the “Stability … 8° C.” value ([2]; 11 days) was 0.314 µg/mL, the “Stability … 8° C.” value ([2]; 12 days) was 0.319 µg/mL and the “Stability … 8° C.” value ([2]; 15 days) was 0.317 µg/mL. The “Stability … 8° C.” value ([2]; 16 days) was 0.320 µg/mL, the “Stability … 8° C.” value ([2]; 17 days) was 0.315 µg/mL and the “Stability … 8° C.” value ([2]; 18 days) was 0.312 µg/mL. The “Stability … 8° C.” value ([2]; 19 days) was 0.317 µg/mL, the “Stability … 8° C.” value ([2]; 22 days) was 0.315 µg/mL and the “Stability … 8° C.” value ([2]; 23 days) was 0.321 µg/mL. For the same compound, the “Stability … 8° C.” value ([2]; 24 days) was 0.316 µg/mL, the “Stability … 8° C.” value ([2]; 25 days) was 0.310 µg/mL and the “Stability … 8° C.” value ([2]; 26 days) was 0.316 µg/mL. The “Stability … 8° C.” value ([2]; 29 days) was 0.321 µg/mL, the “Stability … 8° C.” value ([2]; 30 days) was 0.31 µg/mL and the “Stability … 8° C.” value ([2]; 60 days) was 0.316 µg/mL. For the same compound, the “Stability … 8° C.” value ([2]; 90 days) was 0.318 µg/mL, the “Stability … 8° C.” value ([2]; 120 days) was 0.311 µg/mL and the “Stability … 8° C.” value ([2]; 150 days) was 0.314 µg/mL. For the same compound, the “Stability … 8° C.” value ([2]; 180 days) was 0.319 µg/mL, the “Stability … 8° C.” value ([2]; 210 days) was 0.309 µg/mL and the “Stability … 8° C.” value ([2]; 240 days) was 0.316 µg/mL. For the same compound, the “Stability … 8° C.” value ([2]; 270 days) was 0.316 µg/mL, the “Stability … 8° C.” value ([2]; 300 days) was 0.313 µg/mL and the “Stability … 8° C.” value ([2]; 330 days) was 0.316 µg/mL. The “Stability … 8° C.” value ([2]; 360 days) was 0.306 µg/mL, the “Stability … 8° C.” value ([2]; 390 days) was 0.310 µg/mL and the “Stability … 8° C.” value ([2]; 420 days) was 0.307 µg/mL. The “Stability … 8° C.” value ([2]; 450 days) was 0.312 µg/mL, the “Stability … 8° C.” value ([2]; 480 days) was 0.305 µg/mL and the “Stability … 8° C.” value ([2]; 510 days) was 0.295 µg/mL. The “Stability … 8° C.” value ([2]; 540 days) was 0.299 µg/mL, the “Stability … 8° C.” value ([2]; 570 days) was 0.293 µg/mL and the “Stability of Plant-Derived Cannabinoid Compounds in AB White, 21-25° C.” value (“Stability … 21-25° C.” below) ([2]; 0 days) was 0.320 µg/mL. The “Stability … 21-25° C.” value ([2]; 1 days) was 0.313 µg/mL, the “Stability … 21-25° C.” value ([2]; 2 days) was 0.318 µg/mL and the “Stability … 21-25° C.” value ([2]; 3 days) was 0.311 µg/mL. For the same compound, the “Stability … 21-25° C.” value ([2]; 5 days) was 0.323 µg/mL, the “Stability … 21-25° C.” value ([2]; 8 days) was 0.319 µg/mL and the “Stability … 21-25° C.” value ([2]; 9 days) was 0.307 µg/mL. For the same compound, the “Stability … 21-25° C.” value ([2]; 10 days) was 0.312 µg/mL, the “Stability … 21-25° C.” value ([2]; 11 days) was 0.311 µg/mL and the “Stability … 21-25° C.” value ([2]; 12 days) was 0.316 µg/mL. The “Stability … 21-25° C.” value ([2]; 15 days) was 0.311 µg/mL, the “Stability … 21-25° C.” value ([2]; 16 days) was 0.321 µg/mL and the “Stability … 21-25° C.” value ([2]; 17 days) was 0.323 µg/mL. The “Stability … 21-25° C.” value ([2]; 18 days) was 0.313 µg/mL, the “Stability … 21-25° C.” value ([2]; 19 days) was 0.316 µg/mL and the “Stability … 21-25° C.” value ([2]; 22 days) was 0.322 µg/mL. For the same compound, the “Stability … 21-25° C.” value ([2]; 23 days) was 0.316 µg/mL, the “Stability … 21-25° C.” value ([2]; 24 days) was 0.308 µg/mL and the “Stability … 21-25° C.” value ([2]; 25 days) was 0.310 µg/mL. The “Stability … 21-25° C.” value ([2]; 26 days) was 0.308 µg/mL, the “Stability … 21-25° C.” value ([2]; 29 days) was 0.317 µg/mL and the “Stability … 21-25° C.” value ([2]; 30 days) was 0.317 µg/mL. For the same compound, the “Stability … 21-25° C.” value ([2]; 60 days) was 0.306 µg/mL, the “Stability … 21-25° C.” value ([2]; 90 days) was 0.305 µg/mL and the “Stability … 21-25° C.” value ([2]; 120 days) was 0.318 µg/mL. For the same compound, the “Stability … 21-25° C.” value ([2]; 150 days) was 0.312 µg/mL, the “Stability … 21-25° C.” value ([2]; 180 days) was 0.315 µg/mL and the “Stability … 21-25° C.” value ([2]; 210 days) was 0.307 µg/mL. The “Stability … 21-25° C.” value ([2]; 240 days) was 0.304 µg/mL, the “Stability … 21-25° C.” value ([2]; 270 days) was 0.316 µg/mL and the “Stability … 21-25° C.” value ([2]; 300 days) was 0.312 µg/mL. For the same compound, the “Stability … 21-25° C.” value ([2]; 330 days) was 0.312 µg/mL, the “Stability … 21-25° C.” value ([2]; 360 days) was 0.310 µg/mL and the “Stability … 21-25° C.” value ([2]; 390 days) was 0.303 µg/mL. For the same compound, the “Stability … 21-25° C.” value ([2]; 420 days) was 0.312 µg/mL, the “Stability … 21-25° C.” value ([2]; 450 days) was 0.310 µg/mL and the “Stability … 21-25° C.” value ([2]; 480 days) was 0.294 µg/mL. The “Stability … 21-25° C.” value ([2]; 510 days) was 0.293 µg/mL, the “Stability … 21-25° C.” value ([2]; 540 days) was 0.294 µg/mL and the “Stability … 21-25° C.” value ([2]; 570 days) was 0.295 µg/mL.
